Tested on: PNC in PC3M cells
Assay: PNC disassembly assay in PC3M cells
Format: cell-based
Conditions: PC3M (PTB-GFP) cells
Protocol: The PNC disassembly assay has been previously described. […] Cells were fixed with […] for 10 min at room temperature. […] Confocal images were obtained using Opera Phoenix (PerkinElmer, Waltham, MA) and a 20× objective lens.
To examine whether measured intratumor metarrestin concentrations measured in PK studies track with intracellular metarrestin concentration, we first decided to synthesize a fluorophore conjugated analog of metarrestin. Structure activity relationship studies around the structure of metarrestin were conducted in a high throughput assay that measured in dose dependence the ability of compounds to reducing PNC prevalence in PC3M cells. […] This analog was chemically conjugated to the fluorophore boron-dipyrromethene (BODIPY®) to track the disassembly of the PNC in PC3M cancer cells by confocal microscopy (Suppl. Figure 2). […] Next, to examine cellular metarrestin levels in relation to extracellular concentrations, we exposed KPC and PC3M cells at 1 and 10 µM concentrations of metarrestin and harvested cells at different timepoints.

`N=c1c2c(-c3ccccc3)c(-c3ccccc3)n(Cc3ccccc3)c2ncn1C1CCOCC1` [NCGC00244845] gave an IC50 of 89 nM.
